Assay results as given in paper PMC11597260 (Pharmaceutics, 2024).
Values joined by “and” are separate entries in the source; they are usually repeats but may differ in a detail not shown here. Equal values may be shown once. Read-outs that look alike come from different tables or passages of the source.

Columns and labels:
[1] = Pharmacokinetic study in rats after oral and intratracheal administration of curcumin (plasma, LC-MS/MS); assay type: in vivo, Sprague-Dawley rats
Description: This preparation was then diluted with saline to obtain the desired concentrations for animal experiments.
Twelve male SD rats were randomly divided into two groups with six rats each, one for oral administration and the other for inhalation administration. […] Blood samples of approximately 200 μL were collected via intravenous routes at pre-determined time points: before administration and at 5, 15, 30, and 45 min, and 1, 2, 4, 6, and 8 h post-administration. The blood samples were immediately placed in heparinized EP tubes and kept on ice. […] The specific method of intratracheal administration is depicted in Figure 1, and details of the administration process are provided in the Supplementary Materials (Supplementary Figure S2). Blood samples of about 200 μL were collected at time points before administration and at 2, 5, 15, and 30 min, and 1, 2, 4, 6, 8, 12, and 24 h post-administration, also placed in heparinized EP tubes and kept on ice. The whole blood samples were centrifuged at 4 °C at 5000× g for 10 min within 30 min of collection. The plasma was then separated, aliquoted, and stored at −40 °C until analysis.
The major pharmacokinetic parameters including elimination half-life (t1/2), time to reach peak concentration (Tmax), peak concentration (Cmax), area under the curve (AUC), and mean residence time (MRT) were calculated using Phoenix WinNonlin software (Version 8.2, Certara, Radnor, PA, USA). A non-compartmental model was employed for these calculations, which is suitable for analyzing drug concentration data over time without assuming a specific compartmental structure. Graph Prism 8 was utilized to create graphs and plots that illustrate the pharmacokinetic behavior of the compounds of interest. Statistical analysis was performed using IBM SPSS Statistics 26 to conduct a t-test on the dose-normalized AUC(0−t) values from the two different administration groups. […] The results were considered statistically significant at a p-value less than 0.05, indicating a difference between the groups.

[2] = Stability of spiked rat plasma QC samples under storage conditions; assay type: in vitro ADME; conditions: for Stability, Accuracy (%): rat plasma, mean ± SD, n = 3; for stability of rat plasma samples under storage conditions: room temperature 4 h, 4 °C 8 h, −40 °C 7 days, three freeze–thaw cycles
Caco-2 cell model = conditions: cited from earlier work
[3] = oral curcumin in rats; cited from earlier work
[4] = rat plasma, i.t. curcumin 10 mg/kg (27.17 μmol/kg), mean ± SD, n = 6
[5] = rat plasma, i.t. curcumin 10 mg/kg, dose-normalized to oral dose (inhalation/0.5)
[6] = rat plasma, p.o. curcumin 20 mg/kg (54.34 μmol/kg), mean ± SD, n = 6
[7] = 6 ng/mL, freeze-thaw three cycles
[8] = 6 ng/mL, room temperature for 4 h
[9] = 60 ng/mL, freeze-thaw three cycles
[10] = 60 ng/mL, room temperature for 4 h
[11] = 320 ng/mL, freeze-thaw three cycles
[12] = 320 ng/mL, room temperature for 4 h
[13] = male, Sprague-Dawley, rat, plasma, inhaled or intranasal, 10 mg/kg

| SMILES | AUC(0–t) [1, 4] [µM·h] | AUC(0–∞) [1, 4] [µM·h] | Cmax [1, 4] [nM] | MRT(0–t) [1, 4] [h] | Tmax [1, 4] [h] | t1/2 [1, 4] [h] | AUC(0–t)/0.5 [1, 5] [µM·h] | AUC(0–t) [1, 6] [µM·h] | Stability, Accuracy (%) ([2]; 6 ng/mL, 4 ℃ for 8 h) | Stability, Accuracy (%) ([2]; 6 ng/mL, 40 ℃ for 7 d) | Stability, Accuracy (%) [2, 7] [%] | Stability, Accuracy (%) [2, 8] [%] | Stability, Accuracy (%) ([2]; 60 ng/mL, 4 ℃ for 8 h) | Stability, Accuracy (%) ([2]; 60 ng/mL, 40 ℃ for 7 d) | Stability, Accuracy (%) [2, 9] [%] | Stability, Accuracy (%) [2, 10] [%] | Stability, Accuracy (%) ([2]; 320 ng/mL, 4 ℃ for 8 h) | Stability, Accuracy (%) ([2]; 320 ng/mL, 40 ℃ for 7 d) | Stability, Accuracy (%) [2, 11] [%] | Stability, Accuracy (%) [2, 12] [%] | other results |
| --- | --- | --- | --- | --- | --- | --- | --- | --- | --- | --- | --- | --- | --- | --- | --- | --- | --- | --- | --- | --- | --- |
| COc1cc(/C=C/C(=O)CC(=O)/C=C/c2ccc(O[C@@H]3O[C@H](C(=O)O)[C@@H](O)[C@H](O)[C@H]3O)c(OC)c2)ccc1O [COG] | 0.8863 ± 0.1783 | 0.9189 ± 0.1678 | 521 ± 203 | 4.33 ± 1.69 | 0.25 ± 0.00 | 3.10 ± 0.95 | 1.772 ± 0.3566 | 1.68 ± 0.2441 | 88.10±4.59 | 104.10±7.03 | 89.23±3.79 | 90.20±4.16 | 90.43±2.97 | 87.13±2.10 | 87.93±2.81 | 95.53±2.01 | 93.60±2.52 | 88.93±0.99 | 87.87±2.32 | 95.73±2.23 | exposure relative to COS ([1]; rat plasma, oral dosing of 20 mg/kg curcumin): 30–40 times; AUC(0–∞) [1, 6]: 1.73 ± 0.2565 µM·h; Cmax [1, 6]: 830 ± 158 nM; MRT(0–t) [1, 6]: 2.54 ± 0.29 h; Tmax [1, 6]: 0.54 ± 0.71 h; t1/2 [1, 6]: 1.74 ± 0.57 h; stability of rat plasma samples under storage conditions [2]: stable |
| COc1cc(/C=C/C(=O)CC(=O)/C=C/c2ccc(OS(=O)(=O)O)c(OC)c2)ccc1O [COS] | 1.377 ± 0.6043 | 1.444 ± 0.6249 | 416 ± 138 | 5.14 ± 1.03 | 0.38 ± 0.14 | 5.02 ± 1.27 | 2.754 ± 1.208 | 0.04978 ± 0.02714 | 100.63±2.40 | 90.73±1.36 | 93.73±4.97 | 99.67±4.83 | 93.27±2.31 | 94.53±0.40 | 93.23±0.96 | 96.63±1.39 | 99.23±1.50 | 92.43±5.58 | 93.80±0.46 | 100.77±0.65 | exposure, AUC(0–t)/0.5 intratracheal relative to AUC(0–t) oral ([1]; rat plasma, i.t. 10 mg/kg dose-normalized vs p.o. 20 mg/kg): ~50 fold; AUC(0–∞) [1, 6]: 0.0577 ± 0.02778 µM·h; Cmax [1, 6]: 23.4 ± 9.4 nM; MRT(0–t) [1, 6]: 2.37 ± 0.98 h; Tmax [1, 6]: 1.13 ± 0.96 h; t1/2 [1, 6]: 1.11 ± 0.87 h; stability of rat plasma samples under storage conditions [2]: stable |
| COc1cc(/C=C/C(=O)CC(=O)/C=C/c2ccc(O)c(OC)c2)ccc1O [CUR, Curcumin] | – | – | – | – | – | – | – | – | 96.00±2.57 | 105.13±4.11 | 102.33±7.46 | 92.53±2.91 | 97.73±0.83 | 97.40±0.36 | 95.20±2.19 | 98.57±2.22 | 102.67±0.06 | 93.87±3.21 | 90.10±4.20 | 103.93±1.07 | Papp (Caco-2 cell model): 3.18 ± 1.08 × 10^−6 cm/s; AUC(0-inf) [1, 13]: 1.38 ± 0.37 µM·h; Cmax [1, 13]: 2880 ± 742 nM; half-life [1, 13]: 3.73 ± 1.03 h; AUC(0-t) ([1]; male, Sprague-Dawley, rat, plasma, inhaled or intranasal, 10 mg/kg, rat plasma, i.t. curcumin 10 mg/kg (27.17 μmol/kg), mean ± SD, n = 6, read-out: AUC(0–t)): 1.33 ± 0.374 µM·h; AUC(0-t) ([1]; male, Sprague-Dawley, rat, plasma, inhaled or intranasal, 10 mg/kg, rat plasma, i.t. curcumin 10 mg/kg, dose-normalized to oral dose (inhalation/0.5), read-out: AUC(0–t)/0.5): 2.65 ± 0.749 µM·h; MRT last ([1]; male, Sprague-Dawley, rat, plasma, inhaled or intranasal, 10 mg/kg, read-out: MRT(0–t)): 2.01 ± 0.78 h; Tmax ([1]; male, Sprague-Dawley, rat, plasma, inhaled or intranasal, 10 mg/kg, read-out: Tmax): 0.05 ± 0.03 h; AUC(0-t) ([1]; male, Sprague-Dawley, rat, plasma, po, 20 mg/kg, rat plasma, p.o. curcumin 20 mg/kg, calculated using the lower limit of quantification over 6 h, read-out: AUC(0–t)): < 0.0326 µM·h; plasma levels of the parent compound (below lower limit of quantification) ([1]; rat plasma, oral dosing of 20 mg/kg curcumin, 20 mg/kg): < 2 ng/mL and < 5.434 nM; bioavailability [3]: less than 1% |
